Laboratory results taken from paper PMC11305387, “AlphaFold accelerated discovery of psychotropic agonists targeting the trace amine–associated receptor 1” (Science Advances, 2024).

What was measured:
[1] = target: T1, hTAAR1 (Homo sapiens, UniProt Q96RJ0); assay: cAMP accumulation assay (GloSensor-22F); format: cell-based
T1 construct: expressed in transfected cells; host or cells: Expi293F
T1 sequence (Q96RJ0 1-339): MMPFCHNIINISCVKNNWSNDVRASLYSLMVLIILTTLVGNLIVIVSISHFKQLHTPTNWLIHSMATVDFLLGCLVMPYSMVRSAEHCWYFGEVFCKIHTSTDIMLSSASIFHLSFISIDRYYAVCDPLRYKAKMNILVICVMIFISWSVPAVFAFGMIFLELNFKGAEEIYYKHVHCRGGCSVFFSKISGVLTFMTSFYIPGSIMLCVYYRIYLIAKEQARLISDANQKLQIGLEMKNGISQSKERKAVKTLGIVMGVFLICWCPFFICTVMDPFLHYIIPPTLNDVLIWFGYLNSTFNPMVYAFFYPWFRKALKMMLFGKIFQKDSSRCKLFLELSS
Method: cAMP accumulation was assessed using a previously described system with some modifications ([45]). hTAAR1 and GloSensor-22F were transected with a 1:1 gene dose (1 μg/ml) in Expi293F cells for 48 hours. Cells were then resuspended in assay buffer [Hanks’ balanced salt solution (HBSS), 10 mM Hepes, 2 mM […] (Promega), and 300 μM 3-isobutyl-1-methylxanthine (Sigma-Aldrich)] and seeded with 25,000 cells per well to a white 384-well plate (CulturPlate, PerkinElmer) and incubated for 1 hour in the dark at RT. After a baseline read, compounds were added, and the plate was read for a further 1 hour (SPARK 10 M, Tecan) with 10-min intervals. The final read at 1 hour was used for analysis.

[2] = target: T2, α2A receptor (Homo sapiens, UniProt P08913); assay: PRESTO-TANGO β-arrestin recruitment; format: cell-based
T2 construct: TANGO fusion module (own knowledge, Kroeze et al.: C-terminal V2 tail, TEV site and tTA); 1000000068; host or cells: HTLA (HEK293-derived)
T2 sequence (P08913 1-465): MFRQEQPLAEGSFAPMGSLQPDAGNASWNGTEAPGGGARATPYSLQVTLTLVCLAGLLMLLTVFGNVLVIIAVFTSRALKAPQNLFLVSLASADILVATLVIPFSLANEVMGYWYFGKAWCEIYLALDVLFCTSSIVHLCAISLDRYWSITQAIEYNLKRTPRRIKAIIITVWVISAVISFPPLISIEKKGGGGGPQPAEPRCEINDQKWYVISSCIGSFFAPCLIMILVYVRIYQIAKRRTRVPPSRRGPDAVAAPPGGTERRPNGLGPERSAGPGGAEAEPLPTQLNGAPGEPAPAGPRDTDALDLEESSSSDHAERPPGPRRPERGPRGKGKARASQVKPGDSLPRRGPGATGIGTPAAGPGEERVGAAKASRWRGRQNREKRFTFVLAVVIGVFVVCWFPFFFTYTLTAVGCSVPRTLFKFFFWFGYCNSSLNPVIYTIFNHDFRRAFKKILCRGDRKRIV

[3] = target: T3, D2 receptor (Homo sapiens, UniProt P14416); assay: cell-based; format: cell-based
T3 construct: TANGO fusion module (own knowledge, Kroeze et al.: C-terminal V2 tail, TEV site and tTA); 1000000068; host or cells: HTLA (HEK293-derived)
T3 sequence (P14416 whole entry, the tested form may be a part): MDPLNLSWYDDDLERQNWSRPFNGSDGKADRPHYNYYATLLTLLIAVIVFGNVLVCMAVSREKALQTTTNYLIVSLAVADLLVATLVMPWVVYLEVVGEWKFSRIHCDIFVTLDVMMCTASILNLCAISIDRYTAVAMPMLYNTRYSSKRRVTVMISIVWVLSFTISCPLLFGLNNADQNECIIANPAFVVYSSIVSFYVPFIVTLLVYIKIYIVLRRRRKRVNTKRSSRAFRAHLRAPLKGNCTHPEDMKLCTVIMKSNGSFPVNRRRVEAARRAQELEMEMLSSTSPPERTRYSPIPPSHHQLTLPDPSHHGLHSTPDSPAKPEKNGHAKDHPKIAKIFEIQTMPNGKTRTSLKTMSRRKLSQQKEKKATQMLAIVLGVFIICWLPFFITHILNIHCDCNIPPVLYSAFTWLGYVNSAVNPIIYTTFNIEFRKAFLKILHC
Method: Assessment of receptor activation by compounds at all human aminergic receptors were carried out using a modified version of the PRESTO-TANGO method. […] The plate was spun down, and 5 μl of a 1:25 dilution (in DPBS) of polyethylenimine (PEI) derivative (Transporter 5, Polysciences) was added (1:4 cDNA to PEI ratio) and incubated for 20 min at room temperature (RT). […] Luminescence signal was detected using a plate-reader (SPARK, Tecan) with 100-ms integration time and a 100-ms delay between well reads.

[4] = target: T4, 5-HT1A receptor (Homo sapiens, UniProt P08908); assay: PRESTO-TANGO β-arrestin recruitment; format: cell-based; conditions: panel screen
T4 construct: TANGO fusion module (own knowledge, Kroeze et al.: C-terminal V2 tail, TEV site and tTA); 1000000068; host or cells: HTLA (HEK293-derived)
T4 sequence (P08908 1-422): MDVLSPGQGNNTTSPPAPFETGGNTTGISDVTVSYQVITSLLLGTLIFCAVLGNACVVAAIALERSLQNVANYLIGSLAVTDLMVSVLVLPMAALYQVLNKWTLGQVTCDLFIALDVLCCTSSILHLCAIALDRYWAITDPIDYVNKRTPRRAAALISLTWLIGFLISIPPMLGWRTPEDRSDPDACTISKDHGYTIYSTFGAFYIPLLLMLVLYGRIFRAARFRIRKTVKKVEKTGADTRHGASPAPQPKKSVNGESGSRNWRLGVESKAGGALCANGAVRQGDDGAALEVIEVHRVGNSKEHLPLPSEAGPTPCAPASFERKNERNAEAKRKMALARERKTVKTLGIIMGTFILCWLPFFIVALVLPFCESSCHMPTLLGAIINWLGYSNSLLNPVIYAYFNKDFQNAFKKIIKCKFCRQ

[5] = In vivo pharmacokinetics, plasma and brain; parameters: species or system mice
Method: Brains were collected and snap-frozen. Blood was sampled from the cervical vein upon decapitation in Eppendorf tubes containing 50 μl of 0.5 M EDTA and immediately centrifuged for 10 min at 3000g and 4°C. Isolated plasma was then transferred into clean polypropylene tubes. All samples were stored at −20°C before analysis.
Brains were weighed and homogenized 1:3 (w/v) in PBS using a Minilys Bead Homogenizer (Bertin Instruments). […] Samples were precipitated with acetonitrile (1:4) containing warfarin as analytical internal standard. The supernatants were injected into the LC-MS/MS system consisting of a TQ-S micro mass spectrometer coupled to an Acquity UPLC (Waters Corp, MA, USA). […] The obtained concentrations of brain homogenate samples were multiplied by 4 to account for the dilution during preparation of the homogenate. Pharmacokinetic parameters were determined from the experimental data by applying non-compartmental analysis using Microsoft Excel spreadsheet. The brain-to-plasma partition coefficient (Kp,brain) was calculated as the ratio of the area under the concentration–time curves (AUC) in brain versus plasma (AUCbrain/AUCplasma).

[6] = Metabolic stability in liver microsomes; conditions: human liver microsomes, 1 μM

`CC1=C(c2ccco2)CNCC1` [Compound 65] showed an EC50 [1] of 0.398 nM, an EC50 [2] of 1000 nM and an Emax ([2]; concentration-response curves) of 110%. The “agonism at the α2A receptor” value ([2]; panel screen) was “agonism”, the EC50 ([3]; concentration-response curves) was greater than 1000 nM and the Emax ([3]; concentration-response curves) was 59%. The “agonism at the D2 receptor” value ([3]; panel screen) was “agonism”, the “activation of 5-HT1A receptor” value [4] was “did not observe a considerable activation” and the Clearance ([5]; after intraperitoneal administration, 1 mg/kg, mice, estimated) was 225 ml/min per kg. The “brain concentration by 4 hours” value ([5]; below lower limit of quantification, mice, i.p. 1 mg/kg) was less than 40 pmol/g, the Kp ([5]; male, C57BL/6, mouse, brain and plasma, intraperitoneal, 1 mg/kg, total concentrations, AUCbrain/AUCplasma, read-out: brain-to-plasma partition coefficient Kp,brain) was 7.9 and the half-life ([5]; male, C57BL/6, mouse, ip, plasma, mice, intraperitoneal 1 mg/kg) was 17 min. For the same compound, the concentration at 4 h ([5]; male, C57BL/6, mouse, plasma, ip, below lower limit of quantification, mice, i.p. 1 mg/kg) was less than 5 nM, the Cmax ([5]; male, C57BL/6, mouse, plasma, ip, mice, intraperitoneal 1 mg/kg, read-out: maximum plasma concentration (Cmax)) was 850 ± 172 nM and the Tmax ([5]; male, C57BL/6, mouse, plasma, ip, mice, intraperitoneal 1 mg/kg, read-out: time to maximum plasma concentration) was no more than 5 min. For the same compound, the “maximum concentration in brain” value ([5]; mice, intraperitoneal 1 mg/kg) was 4707 ± 766 pmol/g, the “time to maximum brain concentration” value ([5]; mice, intraperitoneal 1 mg/kg) was no more than 5 min and the “volume of distribution (V)” value ([5]; mice, intraperitoneal 1 mg/kg) was 6.3 L/kg. For the same compound, the “intrinsic clearance CLint” value [6] was 16 μl/min per mg.
